Source: patent publication US11779597B2, “Method of treating Parkinson's and other neurodegenerative diseases” (Vector Vitale IP LLC, priority 2019, dated 2023)
Entries after “also recorded” stand apart in the source; their conditions may differ.

Columns and labels:
[1] = test system: LPS rat models of parkinsonism; test: Apomorphine test in LPS rat models of parkinsonism; format: in vivo
Experimental: Chronic dopamine deficiency of the left hemisphere was modeled by unilateral destruction of dopaminergic neurons in the Substantia nigra pars compacta portion of the brain. It was induced by stereotactic microinjections of 10 μg endotoxin (lipopolysaccharide) (Lipopolysaccharides from Escherichia coli O111:B4, cat. L2630 Sigma) dissolved in 2 μl sterile 0.9% NaCl (Infuzia CJSC, Ukraine). The solution was prepared on the day of a surgical procedure. A flask containing the resulting solution was sealed with a drop of silicone oil (STEP-E[…], Ukraine) and placed in a refrigerator.
An animal, anesthetized using a mixture of ketamine (75 mg/kg, diluted in sterile water for injection, Sigma, USA) and 2% xylazine ([…], Alfasan International B.V., Netherlands) administered intraperitoneally in a total volume of 1 ml, was placed in a stereotaxic apparatus (SEZH-4) modified for rats. The animal was then scalped and a trephine opening was made with an injection needle, directly into the substantia nigra (AP=−5.3; ML=±2.0; DV=−7.2). Dissolved LPS was collected into a home-made microinjector and its tip was dropped into the trephine opening.
Endotoxin at a dose of 10 μg in a volume of 2 μl was injected in the brain tissue at a rate of […] (every 15 seconds). After endotoxin was administered, the tip of the microinjector remained in the brain tissue for 5 minutes. The microinjector was then removed and stitches were put on the scalp soft tissues of the animal. Control animals were administered 2 μl sterile 0.9% NaCl, instead of LPS (sham operated animals).
The percentage of destroyed dopaminergic neurons was calculated using an apomorphine test. The intensity of rotational motions of an animal to the contralateral side of the hemisphere into which endotoxin was injected was assessed. A similar motor activity was induced by systemic intraperitoneal administration of apomorphine, a dopamine receptor agonist (0.5 mg/kg, Sigma, USA). The intensity of such rotational motions for 30 minutes indicated the degree of degradation of the nigrostriatal dopamine system (SA Talanov et al., Neurophysiology 38 (2), 128-133). The number of animals in which the number of rotations increased, decreased or remained unchanged within 30 minutes between apomorphine test I and II was quantified.
On the 1st day of the experiment, rats were either operated to model hemi-parkinsonism or sham operated. From the 9th to the 18th day of the experiment, the animals were injected either deuterium-depleted water or the test substance, according to their allocation into groups, for 10 days. […]

[2] = test system: rat peripheral blood neutrophils; test: Metabolic profile of nonsensitized rat peripheral blood neutrophils in vitro; format: cell-based
Experimental: Materials and methods: Rat microglial cells were isolated by mechanical (cell sieves) disintegration of the brain tissue (FIG. 30A, FIG. 30B and FIG. 30C) followed by fractionation of the tissue homogenate in Percoll density gradient (Microglia: Methods and Protocols, Edited by Bertrand Josef and Jose Luis Venero, Springer protocol. Humana Press, 2013, 350 p.) (FIG. 31). Before the collection of the brain tissue, decapitation was performed to avoid hemorrhage to the brain during sampling (FIG. 32). Decapitation was performed immediately after anesthesia to minimize the death of brain tissue, including microglial cells. All manipulations for the isolation of microglial cells were carried out using coolants. Circulating neutrophils were isolated from venous blood taken into a tube containing EDTA in a two-step Percoll gradient (Alsharif K F et al. Vascul Pharmacol. 2015 August; 71:201-7. doi: 10.1016/j.vph.2015.02.006)(FIG. 33A and FIG. 33B). Circulating monocytes were isolated from venous blood collected into a tube containing heparin in a two-step Hypaque gradient (Macrophages and dendritic cells: Methods and Protocols, Edited by Neil E. Reiner, NY, Humana Press, 2009: 368 P). The metabolic profile of phagocytes was characterized based on the pathway of arginine metabolism (levels of arginase activity and NO synthesis measured using photocolorimetric methods), the level of formation of intracellular reactive oxygen species (ROS) by esterases and the indices of phagocytic activity determined by flow cytofluorimetry, as well as according to the activation levels of NADH and NADPH oxidases determined in NBT test. Duration of treatment of phagocytes of all the above mentioned populations varied depending on the methodological characteristics of metabolic response. A 90 minute exposure to the drugs according to Kim et al., 1977 (cited above) was used to analyze their effects on oxidative metabolism and phagocytic activity. An 18 hour exposure according to Lastra et al., 2001 (cited above) was used to analyze the drug effects on arginine metabolic pathway. To analyze the effects of the drugs under study on the induced (stimulated) metabolic activity of phagocytes, the cells were treated with lipopolysaccharide (LPS) from E. coli (Sigma, USA) according to Haddad et al., 2009 (cited above).

How did the “rats with increased number of rotations between the 1st and 2nd apomorphine tests” value ([1]; 1.5 mg/kg i.v. for 10 days, 2 out of 14 animals) turn out when “^64Zn-enriched zinc aspartate [^64Zne-asp]” was run?
Its value is 14.3%.

And the “rats with a fewer number of rotations between the 1st and 2nd apomorphine tests” value ([1]; 1.5 mg/kg i.v. for 10 days, 12 out of 14 animals)?
The value was 85.7%.

And the “difference in the mean number of rotations between the 1st and 2nd apomorphine tests” value ([1]; LPS rats, 1.5 mg/kg i.v. for 10 days, listed as 64Zn-asp, 1.5 mg/kg)?
The value was “no significant difference; also recorded: did not cause a significant change”.

And the “mean number of rotations, 1st apomorphine test” value ([1]; LPS rats, day 8, before start of treatment)?
The value was 91.2±107.7 rot./30 min.

What about the “arginase activity of resting and bacterial LPS-treated neutrophils” value [2] of the same substance?
Its value is “remained practically unchanged”.

And the “esterase-dependent oxidative metabolism in neutrophils treated with bacterial LPS” value [2]?
Its value is “sharp decrease”.

What about the “intracellular ROS production by nonsensitized neutrophils” value [2] of the same substance?
Its value is “sharp decrease”.

And the “phagocytic activity of neutrophils” value [2]?
Its value is “No statistically significant effect”.

And the “synthesis of reactive nitrogen species by neutrophils after treatment with LPS” value [2]?
The value was “moderately negative effect”.

What about the “synthesis of reactive nitrogen species by resting neutrophils” value [2] of the same substance?
The value was “no significant effect”.

And the “ROS production dependent on NADH and NADPH oxidases (NBT test) in neutrophils” value ([2]; irrespective of treatment with bacterial LPS)?
Its value is “strong negative effect”.
